In patent publication US11554171B2, “Compounds and methods for the targeted degradation of bromodomain-containing proteins” (Arvinas Operations, Inc., priority 2015, dated 2023):

Tested on: c-myc in 22RV-1 cells
Test: Human c-myc ELISA assay
Format: cell-based
Conditions: Homo sapiens; for Emax: 22Rv1, 18 h, read-out: Degradation of BRD4: Maximum inhibition (%) c-Myc ELISA in 22RV1 cells; for DC50: 22Rv1, read-out: Degradation of BRD4: DC50 (uM) c-Myc ELISA in 22RV1 cells
In short: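 c-myc levels measured by ELISA in RIPA lysates of 22RV-1 cells, calibrated with a 333-0 pg/ml standard curve. Lysates came from cells exposed for 18 h to an 8-point, 1:3 dose series starting at 300 nM or 1 μM final in 0.1% DMSO. Suppression potency given as DC50.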

DC50 [µM] | Compound | Emax [%]
< 0.01 | Cc1ncsc1-c1ccc([C@H](C)NC(=O)[C@@H]2C[C@@H](O)CN2C(=O)[C@@H](NC(=O)c2cc3ccc(O[C@H](C)CNC(=O)C[C@@H]4N=C(c5ccc(Cl)cc5)c5c(sc(C)c5C)-n5c(C)nnc54)cc3o2)C(C)(C)C)cc1 [Example 211, (2S,4R)-1-[(2S)-2-[(6-{[(2R)-1-{2-[(9S)-7-(4-chlorophenyl)-4,5,13-trimethyl-3-thia-1,8,11,12-tetraazatricyclo[8.3.0.0^2,^6]trideca-2(6),4,7,10,12-pentaen-9-yl]acetamido}propan-2-yl]oxy}-1-benzofuran-2-yl)formamido]-3,3-dimethylbutanoyl]-4-hydroxy-N-[(1S)-1-[4-(4-methyl-1,3-thiazol-5-yl)phenyl]ethyl]pyrrolidine-2-carboxamide] | 99
< 0.01 | Cc1ncsc1-c1ccc([C@H](C)NC(=O)[C@@H]2C[C@@H](O)CN2C(=O)[C@@H](NC(=O)c2cc3ccc(O[C@H]4C[C@@H](NC(=O)C[C@@H]5N=C(c6ccc(Cl)cc6)c6c(sc(C)c6C)-n6c(C)nnc65)C4)cc3o2)C(C)(C)C)cc1 [Example 212] | 95
0.01 to 0.1 | Cc1ncsc1-c1ccc([C@H](C)NC(=O)[C@@H]2C[C@@H](O)CN2C(=O)C(C(C)C)n2cc(-c3cc(F)cc(O[C@H](C)CNC(=O)C[C@@H]4N=C(c5ccc(Cl)cc5)c5c(sc(C)c5C)-n5c(C)nnc54)c3)cn2)cc1 (stereo partly drawn) [Example 213] | 94.3
0.01 to 0.1 | Cc1ncsc1-c1ccc([C@H](C)NC(=O)[C@@H]2C[C@@H](O)CN2C(=O)C(C(C)C)n2cc(-c3cc(F)cc(O[C@H]4C[C@@H](NC(=O)C[C@@H]5N=C(c6ccc(Cl)cc6)c6c(sc(C)c6C)-n6c(C)nnc65)C4)c3)cn2)cc1 (stereo partly drawn) [Example 214] | 97
< 0.01 | Cc1ncsc1-c1ccc([C@H](C)NC(=O)[C@@H]2C[C@@H](O)CN2C(=O)[C@@H](NC(=O)COc2cc(F)cc(O[C@H]3C[C@H](NC(=O)C[C@@H]4N=C(c5ccc(Cl)cc5)c5c(sc(C)c5C)-n5c(C)nnc54)C3)c2)C(C)(C)C)cc1 [Example 215] | 98
> 1 | Cc1ncsc1-c1ccc(CNC(=O)[C@@H]2C[C@@H](O)CN2C(=O)[C@@H](C(C)C)n2cc(-c3cccc(O[C@H]4C[C@H](NC(=O)C[C@@H]5N=C(c6ccc(Cl)cc6)c6c(sc(C)c6C)-n6c(C)nnc65)C4)c3)cn2)cc1 [Example 216] | 14.4
0.01 to 0.1 | Cc1ncsc1-c1ccc(CNC(=O)[C@@H]2C[C@@H](O)CN2C(=O)[C@H](C(C)C)n2cc(-c3cccc(O[C@H]4C[C@H](NC(=O)C[C@@H]5N=C(c6ccc(Cl)cc6)c6c(sc(C)c6C)-n6c(C)nnc65)C4)c3)cn2)cc1 [Example 217] | 91.9
0.1 to 1 | Cc1ncsc1-c1ccc([C@H](C)NC(=O)[C@@H]2C[C@@H](O)CN2C(=O)[C@@H](C(C)C)n2cc(-c3ccnc(O[C@H]4C[C@H](NC(=O)C[C@@H]5N=C(c6ccc(Cl)cc6)c6c(sc(C)c6C)-n6c(C)nnc65)C4)c3)cn2)cc1 [Example 220] | 66.4
< 0.01 | Cc1ncsc1-c1ccc([C@H](C)NC(=O)[C@@H]2C[C@@H](O)CN2C(=O)[C@@H](NC(=O)c2cc3ccc(O[C@@H](C)CNC(=O)C[C@@H]4N=C(c5ccc(Cl)cc5)c5c(sc(C)c5C)-n5c(C)nnc54)cc3o2)C(C)(C)C)cc1 [Example 221, (2S,4R)-1-[(2S)-2-[(6-{[(2S)-1-{2-[(9S)-7-(4-chlorophenyl)-4,5,13-trimethyl-3-thia-1,8,11,12-tetraazatricyclo[8.3.0.0^2,^6]trideca-2(6),4,7,10,12-pentaen-9-yl]acetamido}propan-2-yl]oxy}-1-benzofuran-2-yl)formamido]-3,3-dimethylbutanoyl]-4-hydroxy-N-[(1S)-1-[4-(4-methyl-1,3-thiazol-5-yl)phenyl]ethyl]pyrrolidine-2-carboxamide] | 100
< 0.01 | Cc1ncsc1-c1ccc([C@H](C)NC(=O)[C@@H]2C[C@@H](O)CN2C(=O)C(C(C)C)n2cc(-c3cccc(OCCNC(=O)C[C@@H]4N=C(c5ccc(Cl)cc5)c5c(sc(C)c5C)-n5c(C)nnc54)c3)cn2)cc1 (stereo partly drawn) [Example 222] | 100
0.1 to 1 | Cc1ncsc1-c1ccc([C@H](C)NC(=O)[C@@H]2C[C@@H](O)CN2C(=O)[C@@H](C(C)C)n2cc(-c3cc(F)cc(OCCNC(=O)C[C@@H]4N=C(c5ccc(Cl)cc5)c5c(sc(C)c5C)-n5c(C)nnc54)c3)cn2)cc1 [Example 223] | 79
< 0.01 | Cc1ncsc1-c1ccc([C@H](C)NC(=O)[C@@H]2C[C@@H](O)CN2C(=O)[C@H](C(C)C)n2cc(-c3cc(F)cc(OCCNC(=O)C[C@@H]4N=C(c5ccc(Cl)cc5)c5c(sc(C)c5C)-n5c(C)nnc54)c3)cn2)cc1 [Example 224] | 100
0.01 to 0.1 | Cc1ncsc1-c1ccc(CNC(=O)[C@@H]2C[C@@H](O)CN2C(=O)[C@H](C(C)C)n2cc(-c3ccnc(O[C@H]4C[C@H](NC(=O)C[C@@H]5N=C(c6ccc(Cl)cc6)c6c(sc(C)c6C)-n6c(C)nnc65)C4)c3)cn2)cc1 [Example 226] | 99
< 0.01 | Cc1ncsc1-c1ccc([C@H](C)NC(=O)[C@@H]2C[C@@H](O)CN2C(=O)[C@@H](NC(=O)COc2ccnc(O[C@H]3C[C@H](NC(=O)C[C@@H]4N=C(c5ccc(Cl)cc5)c5c(sc(C)c5C)-n5c(C)nnc54)C3)c2)C(C)(C)C)cc1 [Example 227] | 100
< 0.01 | Cc1ncsc1-c1ccc([C@H](C)NC(=O)[C@@H]2C[C@@H](O)CN2C(=O)[C@@H](NC(=O)c2cc3ccc(O[C@H]4C[C@H](NC(=O)C[C@@H]5N=C(c6ccc(Cl)cc6)c6c(sc(C)c6C)-n6c(C)nnc65)C4)cc3o2)C(C)(C)C)cc1 [Example 229] | 100
< 0.01 | Cc1ncsc1-c1ccc([C@H](C)NC(=O)[C@@H]2C[C@@H](O)CN2C(=O)[C@@H](NC(=O)Cc2ccc(N3CC[C@@H](NC(=O)C[C@@H]4N=C(c5ccc(Cl)cc5)c5c(sc(C)c5C)-n5c(C)nnc54)C3)cc2)C(C)(C)C)cc1 [Example 230, (2S,4R)-1-[(2S)-2-(2-{4-[(3R)-3-{2-[(9S)-7-(4-chlorophenyl)-4,5,13-trimethyl-3-thia-1,8,11,12-tetraazatricyclo[8.3.0.0^2,^6]trideca-2(6),4,7,10,12-pentaen-9-yl]acetamido}pyrrolidin-1-yl]phenyl}acetamido)-3,3-dimethylbutanoyl]-4-hydroxy-N-[(1S)-1-[4-(4-methyl-1,3-thiazol-5-yl)phenyl]ethyl]pyrrolidine-2-carboxamide] | 100
> 1 | Cc1ncsc1-c1ccc(CNC(=O)[C@@H]2C[C@@H](O)CN2C(=O)[C@@H](C(C)C)n2cc(-c3cccc(O[C@H](C)CNC(=O)C[C@@H]4N=C(c5ccc(Cl)cc5)c5c(sc(C)c5C)-n5c(C)nnc54)c3)cn2)cc1 [Example 231] | 39.5

Compound | DC50 [µM] | Emax [%]
Cc1ncsc1-c1ccc([C@H](C)NC(=O)[C@@H]2C[C@@H](O)CN2C(=O)[C@@H](C(C)C)n2cc(-c3ccnc(O[C@H]4C[C@@H](NC(=O)C[C@@H]5N=C(c6ccc(Cl)cc6)c6c(sc(C)c6C)-n6c(C)nnc65)C4)c3)cn2)cc1 [Example 218, (2S,4R)-4-hydroxy-N-[(1S)-1-[4-(4-methyl-1,3-thiazol-5-yl)phenyl]ethyl]-1-[(2R)-3-methyl-2-(4-{2-1[(1,3-cis)-3-{2-[(9S)-7-(4-chlorophenyl)-4,5,13-trimethyl-3-thia-1,8,11,12-tetraazatricyclo[8.3.0.0^2,^6]trideca-2(6),4,7,10,12-pentaen-9-yl]acetamido}cyclobutoxy]pyridin-4-yl}-1H-pyrazol-1-yl)butanoyl]pyrrolidine-2-carboxamide] | > 1 | 48
Cc1ncsc1-c1ccc([C@H](C)NC(=O)[C@@H]2C[C@@H](O)CN2C(=O)[C@H](C(C)C)n2cc(-c3ccnc(O[C@H]4C[C@@H](NC(=O)C[C@@H]5N=C(c6ccc(Cl)cc6)c6c(sc(C)c6C)-n6c(C)nnc65)C4)c3)cn2)cc1 [Example 219, (2S,4R)-4-hydroxy-N-[(1S)-1-[4-(4-methyl-1,3-thiazol-5-yl)phenyl]ethyl]-1-[(2S)-3-methyl-2-(4-{2-[(1,3-cis)-3-{2-[(9S)-7-(4-chlorophenyl)-4,5,13-trimethyl-3-thia-1,8,11,12-tetraazatricyclo[8.3.0.0^2,^6]trideca-2(6),4,7,10,12-pentaen-9-yl]acetamido}cyclobutoxy]pyridin-4-yl}-1H-pyrazol-1-yl)butanoyl]pyrrolidine-2-carboxamide] | < 0.01 | 95.5
Cc1ncsc1-c1ccc(CNC(=O)[C@@H]2C[C@@H](O)CN2C(=O)[C@@H](C(C)C)n2cc(-c3ccnc(O[C@H]4C[C@H](NC(=O)C[C@@H]5N=C(c6ccc(Cl)cc6)c6c(sc(C)c6C)-n6c(C)nnc65)C4)c3)cn2)cc1 [Example 225, (2S,4R)-4-hydroxy-N-{[4-(4-methyl-1,3-thiazol-5-yl)phenyl]methyl}-1-[(2R)-3-methyl-2-(4-{2-[(1,3trans)-3-{2-[(9 S)-7-(4-chlorophenyl)-4,5,13-trimethyl-3-thia-1,8,11, 12-tetraazatricyclo[8.3.0.0^2,^6]trideca-2(6),4,7,10,12-pentaen-9-yl]acetamido}cyclobutoxy]pyridin-4-yl}-1H-pyrazol-1-yl)butanoyl]pyrrolidine-2-carboxamide] | > 1 | 50.4
Cc1ncsc1-c1ccc([C@H](C)NC(=O)[C@@H]2C[C@@H](O)CN2C(=O)[C@H](C(C)C)n2cc(-c3ccnc(O[C@H]4C[C@H](NC(=O)C[C@@H]5N=C(c6ccc(Cl)cc6)c6c(sc(C)c6C)-n6c(C)nnc65)C4)c3)cn2)cc1 [Example 228, (2S,4R)-4-hydroxy-N-[(1S)-1-[4-(4-methyl-1,3-thiazol-5-yl)phenyl]ethyl]-1-[(2S)-3-methyl-2-(4-{2-[(1r,3r)-3-{2-[(9S)-7-(4-chlorophenyl)-4,5,13-trimethyl-3-thia-1,8,11,12-tetraazatricyclo[8.3.0.0^2,^6]trideca-2(6),4,7,10,12-pentaen-9-yl]acetamido}cyclobutoxy]pyridin-4-yl}-1H-pyrazol-1-yl)butanoyl]pyrrolidine-2-carboxamide] | < 0.01 | 100
